Laboratory results: patent publication US5872107A, “Treatment of urogenital cancer with boron neutron capture therapy” (Emory University, priority 1997, dated 1999)
Entries after “also recorded” stand apart in the source; their conditions may differ.

Tests used:
[1] = Plasma protein binding of CDU by equilibrium dialysis; format: in vitro ADME, rat
Description: Protein binding was determined by equilibrium dialysis. Various amounts of CDU were added to drug free rat plasma to yield CDU concentrations ranging from 0.5 to 100 μg/ml. Plexiglass dialysis cells and dialysis membrane (Spectrapor II, Spectrum Medical Industries, Los Angeles, Calif.) were used. Plasma (0.8 ml) containing different concentrations of CDU was dialyzed against 0.8 ml of isotonic sodium phosphate buffer, pH 7.4, in a shaking water bath at 37° C. for 16 hours. The post-dialysis plasma and buffer volumes were measured and samples were frozen at -20° C. until analysis. The binding data was corrected for fluid shifts that occurred during dialysis. Experiments were performed in duplicate.
This concentration range encompassed those observed following intravenous administration of 25 mg/kg CDU to rats. Assuming that the lipophilic compound CDU is bound predominantly by hydrophobic interactions to albumin, the equilibrium association constant for the protein binding of CDU was approximately 4×10^4 M^-1.

[2] = Toxicity study: weight change and survival of normal Swiss mice; format: in vivo, Swiss female mice; details: 30 mg/kg/day i.p.
Description: A toxicity study was conducted on 6-week-old Swiss female mice treated with CDU and CFAU at 30 mg/kg/day. The compounds were prepared in sterile DMSO and injected intraperitoneally (0.1 mL). DMSO and water were used as controls, with the same injection volume as that used for the CDU and CFAU solutions. The dosing schedule used was once a day for 6 days, and the mice were weighed biweekly for 28 days. Results shown in Table 3 somewhat correlate with the cytotoxicity assays in vitro.

[3] = test system: xenographed human prostate tumor; assay: Accumulation of CDU in xenographed human prostate tumor, brain and serum of nude mice; format: in vivo
Text: The development of the immunodeficient athymic nude mouse has permitted the establishment of human tumors in serial transplantation which provides a representative model of the human disease state. This system, which uses the subcutaneous or subrenal capsule assay is particularly useful in assessing new therapeutic strategies in the treatment of human malignancies and ensures the availability of a constant source of non-attenuated fresh human tumor cells.
Any of these systems can be used to evaluate the extent of accumulation of a selected boron-containing compound in a selected urogenital cancer cell line, or the effect of irradiation of the accumulated compound on that cell line. A detailed example of the evaluation of the accumulation of CDU in a xenographed human prostate tumor obtained from nude mice treated intraperitoneally with 5 mg/kg of tritiated CDU (15 μCi/mouse) is provided in Example 5.
To analyze the concentration of ^10 B-containing compounds in urogenital tissue, the tumor is removed from the animal and then lyophylized. The ^10 B-containing compounds are extracted with a methanol/water solution, and then counted using known methods.
Table 1 provides a summary of the accumulation of CDU in a xenographed human prostate tumor on nude mice treated intraperitoneally with 5 mg/kg of tritiated CDU (15 μCu/mouse). […] The compound partitions in a ratio of approximately 2:1 in the prostate versus blood serum.

[4] = test system: human lymphoma (CEM) cells; assay: Cellular uptake and intracellular phosphorylation, CEM cells; format: cell-based
Text: Carboranyl-containing nucleosides and oligonucleotides, which are lipophilic and have a high content of boron atoms, are particularly suited for use in BNCT of urogenital tumors. Preferred compounds include 5-carboranyl-2'-deoxyuridine (CDU) and 5-o-carboranyl-1-(2-deoxy-2-fluoro-β-D-arabinofuranosyl)uracil (CFAU). […] The entrapment of this molecule in cells allows for the enhancement of the tumor-to-blood ratio for BNCT. CFAU has increased glycosidic bond stability conferred by the β-fluorine group positioned on the 2'-carbon of the nucleoside.
It has been discovered that boron neutron capture therapy, optionally combined with antisense oligonucleotide therapy, can be used in the treatment of urogenital cancer, and in particular, that of the prostate, bladder, and kidney. Any boron-containing compound that is sufficiently lipophilic to pass through the appropriate urogenital membranes in a quantity high enough to achieve therapy on irradiation with low-energy neutrons can be used. Carboranyl-containing nucleosides and oligonucleotides, which are lipophilic and have a high content of boron atoms, are particularly suited for use in BNCT of urogenital cancer. Preferred compounds include 5-carboranyl-2'-deoxyuridine (CDU) and 5-o-carboranyl-1-(2-deoxy-2-fluoro-β-D-arabinofuranosyl)uracil (CFAU). […] The entrapment of this molecule in cells allows the enhancement of the tumor-to-blood ratio for BNCT. CFAU has increased glycosidic bond stability conferred by the β-fluorine group positioned on the 2'-carbon of the nucleoside.

[5] = Partition coefficient of CDU in octanol:phosphate buffer (pH 7.4); format: physicochemical
Description: The partition coefficient (P) of CDU was determined in octanol:phosphate buffer (pH 7.4). The octanol and aqueous phases were equilibrated by shaking together for 1 hour at 20° C. Two milliliters (2 ml) of octanol containing 0.5 mg/ml of CDU were shaken with 4 ml of buffer on a horizontal shaker for 12, hour at 25° C. Tubes were centrifuged to separate the phases and both phases were analyzed by HPLC as described below. The partition coefficient was calculated by dividing the CDU concentration in octanol by the CDU concentration in buffer. Results are reported as log P values.
The average octanol:phosphate buffer, pH 7.4, P value was determined to be 3090.

[6] = brain, 1 hr after CDU, 5 mg/kg tritiated CDU i.p.
[7] = brain, 2 hr after CDU, 5 mg/kg tritiated CDU i.p.
[8] = serum, 1 hr after CDU, 5 mg/kg tritiated CDU i.p.
[9] = serum, 2 hr after CDU, 5 mg/kg tritiated CDU i.p.
[10] = tumor, 2 hr after CDU, 5 mg/kg tritiated CDU i.p.

5-carboranyl-2'-deoxyuridine [CDU]
concentration dependence of plasma protein binding (in words) ([1]; 0.5 μg/ml to 100 μg/ml): independent of the nucleoside concentration; also recorded: in a linear manner
bound to plasma proteins ([1]; 0.5 μg/ml to 100 μg/ml, rat plasma, 960 min): 95.5%
equilibrium association constant for the protein binding ([1]; assuming binding predominantly to albumin, 960 min): approximately 4×10^4 M^-1
average fraction bound to the plasma proteins ([1]; rat plasma, 37° C., pH 7.4, 960 min): 0.95±0.02
weight loss after 1 week (in words) ([2]; CFAU and CDU compared): comparable weight loss after 1 week
weight recovery at 4 weeks (in words) ([2]; surviving animals): all the surviving animals recovered their weight loss to control untreated levels
% of weight gained or lost on week 1 ([2]; week 1, once a day for 6 days): -7.4%
% of weight gained or lost on week 2 ([2]; week 2, once a day for 6 days): 0.1%
% of weight gained or lost on week 3 ([2]; week 3, once a day for 6 days): 4.8%
% of weight gained or lost on week 4 ([2]; week 4, once a day for 6 days): 11.2%
survival at week 4, alive/total ([2]; week 4, once a day for 6 days): 5/5
survival at week 4 (%) ([2]; week 4, once a day for 6 days, 40320 min): 100%
Mean DPM/mg of dry weight, brain, 1 hr [3, 6]: 42.8 DPM/mg of dry weight
pmole/mg of dry weight, brain, 1 hr [3, 6]: 0.32 pmole/mg of dry weight
Mean DPM/mg of dry weight, brain, 2 hr [3, 7]: 23.4 DPM/mg of dry weight
pmole/mg of dry weight, brain, 2 hr [3, 7]: 0.17 pmole/mg of dry weight
accumulation in the prostate cancer cells (in words) ([3]; over brain tissue and serum, 5 mg/kg tritiated CDU i.p.): significantly accumulates in the prostate cancer cells, and preferentially so, over brain tissue and serum
Mean DPM/mg of dry weight, serum, 1 hr [3, 8]: 181.0 DPM/mg of dry weight
pmole/mg of dry weight, serum, 1 hr [3, 8]: 1.33 pmole/mg of dry weight
Mean DPM/mg of dry weight, serum, 2 hr [3, 9]: 111.0 DPM/mg of dry weight
pmole/mg of dry weight, serum, 2 hr [3, 9]: 0.82 pmole/mg of dry weight
pmole/mg of dry weight, tumor, 1 hr ([3]; tumor, 1 hr after CDU, 5 mg/kg tritiated CDU i.p.): 3.60 pmole/mg of dry weight
Mean DPM/mg of dry weight, tumor, 1 hr ([3]; tumor, 1 hr after CDU, 5 mg/kg tritiated CDU i.p. (15 μCi/mouse)): 489.1 DPM/mg of dry weight
Mean DPM/mg of dry weight, tumor, 2 hr [3, 10]: 256.7 DPM/mg of dry weight
pmole/mg of dry weight, tumor, 2 hr [3, 10]: 1.89 pmole/mg of dry weight
intracellular formation of CDU 5'-monophosphate (in words) ([4]; cells not separated (CEM and PBM named)): CDU 5'-monophosphate is formed intracellularly; also recorded: CDU-5'-monophosphate is formed intracellularly
intracellular phosphorylation in CEM cells (in words) ([4]; human lymphoma (CEM) cells): intracellularly phosphorylated
uptake by CEM cells (in words) ([4]; human lymphoma (CEM) cells): taken up
lipophilicity (in words) [5]: highly lipophilic
log P [5]: 3.49
